Each molecule was assayed against T1, Recombinant Human SSAO/VAP-1/AOC3 (Homo sapiens, UniProt Q16853) (assay: Human Semicarbazide-Sensitive Amine Oxidase (SSAO) Assay). Settings: recombinant enzyme, 30 minutes preincubation at 37° C., benzylamine substrate, Amplex Ultra Red/HRP fluorescence.
T1 construct: purchased R&D systems 3957-AO
T1 sequence (Q16853 1-763): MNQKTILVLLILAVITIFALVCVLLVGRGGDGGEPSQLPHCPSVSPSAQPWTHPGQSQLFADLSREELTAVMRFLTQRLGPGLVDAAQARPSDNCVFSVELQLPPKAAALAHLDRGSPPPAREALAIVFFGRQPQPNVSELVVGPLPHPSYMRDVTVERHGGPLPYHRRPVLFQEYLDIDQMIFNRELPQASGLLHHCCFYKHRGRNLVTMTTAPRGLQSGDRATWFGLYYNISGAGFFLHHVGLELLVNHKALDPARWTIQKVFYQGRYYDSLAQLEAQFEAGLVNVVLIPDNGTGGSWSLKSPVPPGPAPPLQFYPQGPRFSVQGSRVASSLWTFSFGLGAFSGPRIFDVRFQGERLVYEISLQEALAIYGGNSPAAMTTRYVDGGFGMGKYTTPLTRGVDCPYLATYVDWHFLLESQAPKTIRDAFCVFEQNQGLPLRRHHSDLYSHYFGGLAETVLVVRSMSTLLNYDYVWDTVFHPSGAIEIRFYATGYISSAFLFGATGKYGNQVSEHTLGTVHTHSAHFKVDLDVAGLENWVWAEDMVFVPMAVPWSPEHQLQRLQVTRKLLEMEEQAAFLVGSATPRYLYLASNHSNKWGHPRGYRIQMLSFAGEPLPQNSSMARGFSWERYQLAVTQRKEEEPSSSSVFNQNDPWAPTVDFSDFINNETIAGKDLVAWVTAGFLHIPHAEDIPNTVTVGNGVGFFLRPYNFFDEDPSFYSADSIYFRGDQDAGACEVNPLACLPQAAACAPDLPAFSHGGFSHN
Assay type: biochemical
Method in brief: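 Recombinant human SSAO/VAP-1 (2.5 μg/ml working stock in 50 mM HEPES) preincubated with compound 30 min at 37 °C over a 6-10 point CRC. Benzylamine substrate starts the reaction. H2O2 read kinetically over 30-120 min via Amplex Ultra Red/HRP fluorescence (ex 544/em 590 nm) to derive IC50.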

Row | SMILES | IC50
1 | COc1ccccc1CNC(=O)C12CCC(c3ccc(OC/C(=C/F)CN)cc3)(CC1)CC2 [Compound 2.128, (E)-4-(4-((2-(aminomethyl)-3-fluoroallyl)oxy)phenyl)-N-(2-methoxybenzyl)bicyclo[2.2.2] octane-1-carboxamide] | ≤ 10 nM
2 | NC/C(=C\F)COc1ccc(C23CCC(C(=O)NCc4cnccn4)(CC2)CC3)cc1 [Compound 2.129, (E)-4-(4-((2-(aminomethyl)-3-fluoroallyl)oxy)phenyl)-N-(pyrazin-2-ylmethyl)bicyclo[2.2.2]octane-1-carboxamide] | ≤ 10 nM
3 | COc1cccc(CNC(=O)C23CCC(c4ccc(OC/C(=C/F)CN)cc4)(CC2)CC3)n1 [Compound 2.130, (E)-4-(4-((2-(aminomethyl)-3-fluoroallyl)oxy)phenyl)-N-((6-methoxypyridin-2-yl)methyl)bicyclo[2.2.2]octane-1-carboxamide] | ≤ 10 nM
4 | NC/C(=C\F)COc1ccc(C23CCC(C(=O)NC4CCC5(CCOCC5)CC4)(CC2)CC3)cc1 [Compound 2.131, (E)-4-(4-((2-(aminomethyl)-3-fluoroallyl)oxy)phenyl)-N-(3-oxaspiro[5.5]undecan-9-yl)bicyclo[2.2.2]octane-1-carboxamide] | ≤ 10 nM
5 | COCC(C)(C)CNC(=O)C12CCC(c3ccc(OC/C(=C/F)CN)cc3)(CC1)CC2 [Compound 2.132, (E)-4-(4-((2-(aminomethyl)-3-fluoroallyl)oxy)phenyl)-N-(3-methoxy-2,2-dimethylpropyl)bicyclo[2.2.2] octane-1-carboxamide] | ≤ 10 nM
6 | CO[C@@H]1CCN(C(=O)C23CCC(c4ccc(OC/C(=C/F)CN)cc4)(CC2)CC3)C1 [Compound 2.133, (R,E)-(4-(4-((2-(aminomethyl)-3-fluoroallyl)oxy)phenyl)bicyclo[2.2.2]octan-1-yl)(3-methoxypyrrolidin-1-yl)methanone] | ≤ 10 nM
7 | COc1cc(CNC(=O)C23CCC(c4ccc(OC/C(=C/F)CN)cc4)(CC2)CC3)ccn1 [Compound 2.134, (E)-4-(4-((2-(aminomethyl)-3-fluoroallyl)oxy)phenyl)-N-((2-methoxpyridin-4-yl)methyl)bicyclo[2.2.2]octane-1-carboxamide] | ≤ 10 nM
8 | NC/C(=C\F)COc1ccc(C23CCC(C(=O)NC4CC(F)(F)C4)(CC2)CC3)cc1 [Compound 2.135, (E)-4-(4-((2-(aminomethyl)-3-fluoroallyl)oxy)phenyl)-N-(3,3-difluorocyclobutyl)bicyclo[2.2.2] octane-1-carboxamide] | ≤ 10 nM
9 | CC1(C)CC(NC(=O)C23CCC(c4ccc(OC/C(=C/F)CN)cc4)(CC2)CC3)C1 [Compound 2.136, (E)-4-(4-((2-(aminomethyl)-3-fluoroallyl)oxy)phenyl)-N-(3,3-dimethylcyclobutyl)bicyclo [2.2.2]octane-1-carboxamide] | ≤ 10 nM
10 | COc1ncccc1CNC(=O)C12CCC(c3ccc(OC/C(=C/F)CN)cc3)(CC1)CC2 [Compound 2.137, (E)-4-(4-((2-(aminomethyl)-3-fluoroallyl)oxy)phenyl)-N-((2-methoxypyridin-3-yl)methyl)bicyclo[2.2.2]octane-1-carboxamide] | ≤ 10 nM
11 | COC(C)(C)CCNC(=O)C12CCC(c3ccc(OC/C(=C/F)CN)cc3)(CC1)CC2 [Compound 2.138, (E)-4-(4-((2-(aminomethyl)-3-fluoroallyl)oxy)phenyl)-N-(3-methoxy-3-methylbutyl)bicyclo[2.2.2] octane-1-carboxamide] | ≤ 10 nM
12 | NC/C(=C\F)COc1ccc(C23CCC(C(=O)NCc4ccnnc4)(CC2)CC3)cc1 [Compound 2.139, (E)-4-(4-((2-(aminomethyl)-3-fluoroallyl)oxy)phenyl)-N-(pyridazin-4-ylmethyl)bicyclo[2.2.2]octane-1-carboxamide] | ≤ 10 nM
13 | COc1nccc(CNC(=O)C23CCC(c4ccc(OC/C(=C/F)CN)cc4)(CC2)CC3)n1 [Compound 2.140, (E)-4-(4-((2-(aminomethyl)-3-fluoroallyl)oxy)phenyl)-N-((2-methoxypyrimidin-4-yl)methyl)bicyclo[2.2.2]octane-1-carboxamide] | ≤ 10 nM
14 | COc1ccc(CNC(=O)C23CCC(c4ccc(OC/C(=C/F)CN)cc4)(CC2)CC3)cn1 [Compound 2.141, (E)-4-(4-((2-(aminomethyl)-3-fluoroallyl)oxy)phenyl)-N-((6-methoxpyridin-3-yl)methyl)bicyclo[2.2.2]octane-1-carboxamide] | ≤ 10 nM
15 | NC/C(=C\F)COc1ccc(C23CCC(C(=O)N4CC5(CCCCO5)C4)(CC2)CC3)cc1 [Compound 2.143, (E)-(4-(4-((2-(aminomethyl)-3-fluoroallyl)oxy)phenyl)bicyclo [2.2.2]octan-1-yl)(5-oxa-2-azaspiro[3.5]nonan-2-yl)methanone] | ≤ 10 nM
16 | COC1(CNC(=O)C23CCC(c4ccc(OC/C(=C/F)CN)cc4)(CC2)CC3)CC1 [Compound 2.144, (E)-4-(4-((2-(aminomethyl)-3-fluoroallyl)oxy)phenyl)-N-((1-methoxycyclopropyl)methyl) bicyclo[2.2.2]octane-1-carboxamide] | ≤ 10 nM
17 | CO[C@H]1C[C@H](CNC(=O)C23CCC(c4ccc(OC/C(=C/F)CN)cc4)(CC2)CC3)C1 [Compound 2.145, 4-(4-(((E)-2-(aminomethyl)-3-fluoroallyl)oxy)phenyl)-N-(((1r,3r)-3-methoxycyclobutyl)methyl) bicyclo[2.2.2]octane-1-carboxamide] | ≤ 10 nM
18 | CCOC1CC(NC(=O)C23CCC(c4ccc(OC/C(=C/F)CN)cc4)(CC2)CC3)C1 (stereo not drawn) [Compound 2.146, 4-(4-(((E)-2-(aminomethyl)-3-fluoroallyl)oxy)phenyl)-N-((1r,3r)-3-ethoxycyclobutyl)bicyclo[2.2.2] octane-1-carboxamide] | ≤ 10 nM
19 | COC1(CCNC(=O)C23CCC(c4ccc(OC/C(=C/F)CN)cc4)(CC2)CC3)CCC1 [Compound 2.147, (E)-4-(4-((2-(aminomethyl)-3-fluoroallyl)oxy)phenyl)-N-(2-(1-methoxycyclobutyl)ethyl) bicyclo[2.2.2]octane-1-carboxamide] | ≤ 10 nM
20 | CO[C@H]1C[C@H](CNC(=O)C23CCC(c4ccc(OC/C(=C/F)CN)cc4)(CC2)CC3)C1 [Compound 2.148, 4-(4-(((E)-2-(aminomethyl)-3-fluoroallyl)oxy)phenyl)-N-(((1s,3s)-3-methoxycyclobutyl)methyl) bicyclo[2.2.2]octane-1-carboxamide] | ≤ 10 nM
21 | CCO[C@H]1C[C@@H](NC(=O)C23CCC(c4ccc(OC/C(=C/F)CN)cc4)(CC2)CC3)C1 [Compound 2.150, 4-(4-(((E)-2-(aminomethyl)-3-fluoroallyl)oxy)phenyl)-N-((1s,3s)-3-ethoxycyclobutyl)bicyclo[2.2.2] octane-1-carboxamide] | ≤ 10 nM
22 | COCC1(CNC(=O)C23CCC(c4ccc(OC/C(=C/F)CN)cc4)(CC2)CC3)CC1 [Compound 2.151, (E)-4-(4-((2-(aminomethyl)-3-fluoroallyl)oxy)phenyl)-N-((1-(methoxymethyl)cyclopropyl)methyl)bicyclo[2.2.2]octane-1-carboxamide] | ≤ 10 nM
23 | NC/C(=C\F)COc1ccc(C23CCC(C(=O)NC4(C(F)(F)F)CCOCC4)(CC2)CC3)cc1 [Compound 2.152, (E)-4-(4-((2-(aminomethyl)-3-fluoroallyl)oxy)phenyl)-N-(4-(trifluoromethyl)tetrahydro-2H-pyran-4-yl)bicyclo[2.2.2]octane-1-carboxamide] | 10 to 100 nM
24 | CC1(C)CCC(NC(=O)C23CCC(c4ccc(OC/C(=C/F)CN)cc4)(CC2)CC3)CO1 (stereo not drawn) [Compound 2.153, (E)-4-(4-((2-(aminomethyl)-3-fluoroallyl)oxy)phenyl)-N-(6,6-dimethyltetrahydro-2H-pyran-3-yl)bicyclo[2.2.2]octane-1-carboxamide] | ≤ 10 nM
25 | NC/C(=C\F)COc1ccc(C23CCC(C(=O)NC4CCOC5(CCC5)C4)(CC2)CC3)cc1 (stereo not drawn) [Compound 2.154, (E)-4-(4-((2-(aminomethyl)-3-fluoroallyl)oxy)phenyl)-N-(5-oxaspiro[3.5]nonan-8-yl)bicyclo[2.2.2]octane-1-carboxamide] | ≤ 10 nM
26 | NC/C(=C\F)COc1ccc(C23CCC(C(=O)NCc4ccncn4)(CC2)CC3)cc1 [Compound 2.155, (E)-4-(4-((2-(aminomethyl)-3-fluoroallyl)oxy)phenyl)-N-(pyrimidin-4-ylmethyl)bicyclo[2.2.2]octane-1-carboxamide] | ≤ 10 nM
27 | N#CC1CCCC1NC(=O)C12CCC(c3ccc(OC/C(=C/F)CN)cc3)(CC1)CC2 (stereo not drawn) [Compound 2.156, (E)-4-(4-((2-(aminomethyl)-3-fluoroallyl)oxy)phenyl)-N-(2-cyanocyclopentyl)bicyclo[2.2.2] octane-1-carboxamide] | ≤ 10 nM

From patent US20200181104A1, “SSAO INHIBITORS AND USES THEREOF” (METACRINE, INC., priority 2018, published 2020)
